# Results from US11459308B2 (priority 2016, dated 2022).
# Legend:
# in vitro = settings: African green monkey
# rVSV-EBOV GP = test: microbe, parasite or virus in culture; format: cell-based, Zaire Ebolavirus; settings: Zaire ebolavirus, read-out: rVSV-EBOV IC50
# [1] = test system: authentic EBOV (EBOV-Zaire 1995); test: microbe, parasite or virus in culture; format: cell-based, Ebola virus; settings: Zaire ebolavirus, Vero, 48 h, read-out: infectious EBOV-Z IC50
SMILES,CC50 (in vitro),IC50 (rVSV-EBOV GP),IC50 [1]
"CC(=O)Nc1ccc(N2CCN(C)CC2)cc1NC(c1ccccc1)c1ccccc1 [MBX 3525, 2-(benzhydrylamino)-4-(4-methylpiperazin-1-yl)-1-acetamidobenzene]",100 µM,4 µM,> 20 µM
"CN1CCN(c2ccc3[nH]c(=O)n(C(c4ccccc4)c4ccccc4)c3c2)CC1 [MBX 3526, 1-benzhydryl-6-(4-methylpiperazin-1-yl)-1H-benzo[d]imidazol-2(3H)-one]",26 µM,2.9 µM,
"CN1CCN(c2ccc(NS(C)(=O)=O)c(NC(c3ccccc3)c3ccccc3)c2)CC1 [MBX 3536A, 2-(benzhydrylamino)-4-(4-methylpiperazin-1-yl)-1-(methylsulfonamido)benzene]",26 µM,2.9 µM,3.1 µM
"CN1CCN(c2ccc3nnn(C(c4ccccc4)c4ccccc4)c3c2)CC1 [MBX 3537A, 1-benzhydryl-6-(4-methylpiperazin-1-yl)-benzo[d][1,2,3]triazole]",41 µM,2.3 µM,2.3 µM
"Cc1nc2ccc(N3CCN(C)CC3)cc2n1C(c1ccccc1)c1ccccc1 [MBX 3539, 1-benzhydryl-2-methyl-6-(4-methylpiperazin-1-yl)benzo[d]imidazole]",77 µM,14 µM,> 20 µM
"CN1CCN(c2ccc3ncn(C(c4ccccc4)c4ccccc4)c3c2)CC1 [MBX 3540, 1-benzhydryl-6-(4-methylpiperazin-1-yl)benzo[d]imidazole]",58 µM,0.8 µM,0.9 µM
"O=[N+]([O-])c1ccc(N2CCNCC2)cc1NC(c1ccccc1)c1ccccc1 [MBX 3556, 1-(benzhydrylamino)-5-(piperazin-1-yl)-2-nitrobenzene]",5.2 µM,1.4 µM,1.1 µM
"CCN1CCN(c2ccc([N+](=O)[O-])c(NC(c3ccccc3)c3ccccc3)c2)CC1 [MBX 3557, 1-(benzhydrylamino)-5-(4-ethylpiperazin-1-yl)-2-nitrobenzene]",20 µM,1.4 µM,1.9 µM
"O=[N+]([O-])c1ccc(N2CCN(CCc3ccccc3)CC2)cc1NC(c1ccccc1)c1ccccc1 [MBX 3623, 2-benzhydrylamino-4-(4-phenethylpiperazin-1-yl)nitrobenzene]",> 100 µM,> 25 µM,
"O=[N+]([O-])c1ccc(N2CCN(c3ccccc3)CC2)cc1NC(c1ccccc1)c1ccccc1 [MBX 3624, 2-benzhydrylamino-4-(4-phenylpiperazin-1-yl)nitrobenzene]",> 100 µM,> 25 µM,
"COc1ccccc1C(Nc1cc(N2CCN(C)CC2)ccc1[N+](=O)[O-])c1ccccc1 (stereo not drawn) [MBX 3635, 2-[phenyl(2-methoxyphenyl)methylamino]-4-(4-methylpiperazin-1-yl)nitrobenzene]",14 µM,2.5 µM,
"COc1cccc(C(Nc2cc(N3CCN(C)CC3)ccc2[N+](=O)[O-])c2ccccc2)c1 (stereo not drawn) [MBX 3641, 2-[(3-methoxyphenyl)(phenyl)methylamino]-4-(4-methylpiperazin-1-yl)nitrobenzene]",26 µM,> 25 µM,
"COc1ccc(C(Nc2cc(N3CCN(C)CC3)ccc2[N+](=O)[O-])c2ccccc2)cc1 (stereo not drawn) [MBX 3642, 2-[(4-methoxyphenyl)(phenyl)methylamino]-4-(4-methylpiperazin-1-yl)nitrobenzene]",33 µM,> 25 µM,
"CN1CCN(c2ccc([N+](=O)[O-])c(NC(c3ccccc3)c3ccc(Cl)cc3)c2)CC1 (stereo not drawn) [MBX 3644, 2-[(4-chlorophenyl)(phenyl)methylamino]-4-(4-methylpiperazin-1-yl)nitrobenzene]",18 µM,1.4 µM,
"CN1CCN(c2ccc([N+](=O)[O-])c(NC(c3ccccc3)c3ccccn3)c2)CC1 (stereo not drawn) [MBX 3647, 2-[(pyridin-2-yl)(phenyl)methylamino]-4-(4-methylpiperazin-1-yl)nitrobenzene]",> 100 µM,> 25 µM,
"CN1CCN(c2ccc([N+](=O)[O-])c(NC(c3ccccc3)c3cccnc3)c2)CC1 (stereo not drawn) [MBX 3648, 2-[(pyridin-3-yl)(phenyl)methylamino]-4-(4-methylpiperazin-1-yl)nitrobenzene]",17 µM,> 25 µM,
"CN1CCN(c2ccc([N+](=O)[O-])c(NC(c3ccccc3)c3ccncc3)c2)CC1 (stereo not drawn) [MBX 3670, 2-[(pyridin-4-yl)(phenyl)methylamino]-4-(4-methylpiperazin-1-yl)nitrobenzene]",45 µM,4.5 µM,
"Cc1ccc(C(Nc2cc(N3CCN(C)CC3)ccc2[N+](=O)[O-])c2ccccc2)cc1 (stereo not drawn) [MBX 3687, 2-[(phenyl)(p-tolyl)methylamino]-4-(4-methylpiperazin-1-yl)nitrobenzene]",16 µM,2.2 µM,
"CN1CCN(c2ccc([N+](=O)[O-])c(NC(c3ccccc3)c3ccccc3)c2)CC1=O [MBX 3695, 2-benzhydrylamino-4-(4-methyl-3-oxopiperazin-1-yl)nitrobenzene]",> 100 µM,16 µM,
"CCN(CC)c1ccc([N+](=O)[O-])c(NC(c2ccccc2)c2ccccc2)c1 [MBX 3696, 2-benzhydrylamino-4-(diethylamino)nitrobenzene]",> 100 µM,> 25 µM,

SMILES,CC50 (in vitro),IC50 (rVSV-EBOV GP),IC50 [1]
"O=[N+]([O-])c1ccc(N2CCSCC2)cc1NC(c1ccccc1)c1ccccc1 [MBX 3699, 2-benzhydrylamino-4-thiomorpholino-1-nitrobenzene]",> 100 µM,> 25 µM,
"CN1CCCN(c2ccc([N+](=O)[O-])c(NC(c3ccccc3)c3ccccc3)c2)CC1 [MBX 3700, 2-benzhydrylamino-4-(4-methyl-1,4-diazepan-1-yl)-1-nitrobenzene]",7.6 µM,< 0.1 µM,
"O=[N+]([O-])c1ccc(N2CCCCC2)cc1NC(c1ccccc1)c1ccccc1 [MBX 3702, 2-benzhydrylamino-4-(piperidin-1-yl)-1-nitrobenzene]",> 100 µM,> 25 µM,
"CN1CCC(N(C)c2ccc([N+](=O)[O-])c(NC(c3ccccc3)c3ccccc3)c2)CC1 [MBX 3742, 2-(benzhydrylamino)-4-[methyl(1-methylpiperidin-4-yl)amino]-1-nitrobenzene]",3.3 µM,1.5 µM,
"O=[N+]([O-])c1ccc(N2CCC(N3CCCCC3)CC2)cc1NC(c1ccccc1)c1ccccc1 [MBX 3747, 2-(benzhydrylamino)-4-[(1,4′-bipiperidin)-1′-yl]-1-nitrobenzene]",7.5 µM,0.58 µM,
"CN(C)C1CCN(c2ccc([N+](=O)[O-])c(NC(c3ccccc3)c3ccccc3)c2)CC1 [MBX 3749, 2-(benzhydrylamino)-4-[4-(dimethylamino)piperidin-1-yl]-1-nitrobenzene]",7.7 µM,0.7 µM,
"CCOC(=O)CN1CCN(c2ccc([N+](=O)[O-])c(NC(c3ccccc3)c3ccccc3)c2)CC1 [MBX 3947, 2-(benzhydrylamino)-4-[4-(2-ethoxy-2-oxoethyl)piperazin-1-yl]-1-nitrobenzene]",> 100 µM,18 µM,
"c1ccc(C(c2ccccc2)n2cnc3ccc(N4CCN5CCCCC5C4)cc32)cc1 (stereo not drawn) [MBX 4211, 2-(1-benzhydryl-1H-benzo[d]imidazol-6-yl)octahydro-1H-pyrido[1,2-a]pyrazine]",195 µM,2 µM,
"CN1CCN(c2ccc3ncn(C(C)(C)c4ccccc4)c3c2)CC1 [MBX 4213, 6-(4-methylpiperazin-1-yl)-1-(2-phenylpropan-2-yl)-1H-benzo[d]imidazole]",> 200 µM,200 µM,
"c1ccc(C(c2ccccc2)n2cnc3ccc(N4CCNCC4)nc32)cc1 [MBX 4214, 3-benzhydryl-5-(piperazin-1-yl)-3H-imidazo[4,5-b]pyridine]",105 µM,3 µM,
"c1ccc(C(c2ccccc2)n2cnc3cnc(N4CCNCC4)cc32)cc1 [MBX 4215A, 1-benzhydryl-6-(piperazin-1-yl)-1H-imidazo[4,5-c]pyridine bis(2,2,2-trifluoroacetate)]",94 µM,2.8 µM,
"O=[N+]([O-])c1ccc(-c2ccncc2)cc1NC(c1ccccc1)c1ccccc1 [MBX 4277, N-benzhydryl-2-nitro-5-(pyridin-4-yl)aniline]",40 µM,14.6 µM,
"c1ccc(C(c2ccccc2)n2cnc3ccc(-c4ccncc4)cc32)cc1 [MBX 4278, 1-benzhydryl-6-(pyridin-4-yl)-1H-benzo[d]imidazole]",4.2 µM,8.98 µM,
"O=[N+]([O-])c1ccc(-c2cccnc2)cc1NC(c1ccccc1)c1ccccc1 [MBX 4279, N-benzhydryl-2-nitro-5-(pyridin-3-yl)aniline]",49 µM,12.4 µM,
"c1ccc(C(c2ccccc2)n2cnc3ccc(-c4cccnc4)cc32)cc1 [MBX 4294, 1-benzhydryl-6-(pyridin-3-yl)-1H-benzo[d]imidazole]",59 µM,15.6 µM,
"CN1CCN(c2ccc([N+](=O)[O-])c(NC3(c4ccccc4)CC3)c2)CC1 [MBX 4295, 5-(4-methylpiperazin-1-yl)-2-nitro-N-(1-phenylcyclopropyl)aniline]",58 µM,16.2 µM,
"CN1CCN(c2ccc([N+](=O)[O-])c(NC3(c4ccccc4)CCCC3)c2)CC1 [MBX 4296, 5-(4-methylpiperazin-1-yl)-2-nitro-N-(1-phenylcyclopentyl)aniline]",> 200 µM,5.89 µM,
"CN1CCN(c2ccc([N+](=O)[O-])c(NC(=O)c3ccccc3)c2)CC1 [MBX 4328, N-[5-(4-methylpiperazin-1-yl)-2-nitrophenyl]benzamide]",60 µM,11.5 µM,
"CCOC(=O)CC(Nc1cc(N2CCN(C)CC2)ccc1[N+](=O)[O-])c1ccccc1 (stereo not drawn) [MBX 4329, ethyl 3-((5-(4-methylpiperazin-1-yl)-2-nitrophenyl)amino)-3-phenylpropanoate]",45 µM,10.4 µM,
O=[N+]([O-])c1ccc(N2CCOCC2)cc1NC(c1ccccc1)c1ccccc1 [PPZ-10],> 100 µM,5.5 µM,
